What was measured:
Assay in all cases: KINOMEscan competition binding
Conditions in all cases: compound 10.0 µM
MINK1 (human) = MINK1 (human) (UniProt Q8N4C8)
MAPK15 (human) = MAPK15 (human) (UniProt Q8TD08)
EPHB1 (human) = EPHB1 (human) (UniProt P54762)
LATS2 (human) = LATS2 (human) (UniProt Q9NRM7)
MUSK (human) = MUSK (human) (UniProt O15146)
AURKB (human) = AURKB (human) (UniProt Q96GD4)
MAP3K9 (human) = MAP3K9 (human) (UniProt P80192)
RPS6KA6 KD1 (human) = RPS6KA6 KD1 (human) (UniProt Q9UK32)
CSNK2A1 (human) = CSNK2A1 (human) (UniProt P68400)
Chain of CSNK2A1 (human) (P68400 whole entry, looked up): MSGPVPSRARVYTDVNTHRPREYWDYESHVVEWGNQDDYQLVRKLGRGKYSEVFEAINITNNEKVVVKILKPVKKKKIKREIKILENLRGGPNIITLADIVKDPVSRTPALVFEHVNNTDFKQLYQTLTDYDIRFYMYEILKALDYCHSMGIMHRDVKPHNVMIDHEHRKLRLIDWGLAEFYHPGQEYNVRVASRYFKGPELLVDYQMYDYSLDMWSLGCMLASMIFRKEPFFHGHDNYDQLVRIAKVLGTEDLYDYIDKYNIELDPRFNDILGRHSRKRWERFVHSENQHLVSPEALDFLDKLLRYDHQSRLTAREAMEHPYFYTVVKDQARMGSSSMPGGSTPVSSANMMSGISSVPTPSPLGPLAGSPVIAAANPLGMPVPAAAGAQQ

MYLK (human) = MYLK (human) (UniProt Q15746)
Chain of MYLK (human) (Q15746 whole entry, looked up): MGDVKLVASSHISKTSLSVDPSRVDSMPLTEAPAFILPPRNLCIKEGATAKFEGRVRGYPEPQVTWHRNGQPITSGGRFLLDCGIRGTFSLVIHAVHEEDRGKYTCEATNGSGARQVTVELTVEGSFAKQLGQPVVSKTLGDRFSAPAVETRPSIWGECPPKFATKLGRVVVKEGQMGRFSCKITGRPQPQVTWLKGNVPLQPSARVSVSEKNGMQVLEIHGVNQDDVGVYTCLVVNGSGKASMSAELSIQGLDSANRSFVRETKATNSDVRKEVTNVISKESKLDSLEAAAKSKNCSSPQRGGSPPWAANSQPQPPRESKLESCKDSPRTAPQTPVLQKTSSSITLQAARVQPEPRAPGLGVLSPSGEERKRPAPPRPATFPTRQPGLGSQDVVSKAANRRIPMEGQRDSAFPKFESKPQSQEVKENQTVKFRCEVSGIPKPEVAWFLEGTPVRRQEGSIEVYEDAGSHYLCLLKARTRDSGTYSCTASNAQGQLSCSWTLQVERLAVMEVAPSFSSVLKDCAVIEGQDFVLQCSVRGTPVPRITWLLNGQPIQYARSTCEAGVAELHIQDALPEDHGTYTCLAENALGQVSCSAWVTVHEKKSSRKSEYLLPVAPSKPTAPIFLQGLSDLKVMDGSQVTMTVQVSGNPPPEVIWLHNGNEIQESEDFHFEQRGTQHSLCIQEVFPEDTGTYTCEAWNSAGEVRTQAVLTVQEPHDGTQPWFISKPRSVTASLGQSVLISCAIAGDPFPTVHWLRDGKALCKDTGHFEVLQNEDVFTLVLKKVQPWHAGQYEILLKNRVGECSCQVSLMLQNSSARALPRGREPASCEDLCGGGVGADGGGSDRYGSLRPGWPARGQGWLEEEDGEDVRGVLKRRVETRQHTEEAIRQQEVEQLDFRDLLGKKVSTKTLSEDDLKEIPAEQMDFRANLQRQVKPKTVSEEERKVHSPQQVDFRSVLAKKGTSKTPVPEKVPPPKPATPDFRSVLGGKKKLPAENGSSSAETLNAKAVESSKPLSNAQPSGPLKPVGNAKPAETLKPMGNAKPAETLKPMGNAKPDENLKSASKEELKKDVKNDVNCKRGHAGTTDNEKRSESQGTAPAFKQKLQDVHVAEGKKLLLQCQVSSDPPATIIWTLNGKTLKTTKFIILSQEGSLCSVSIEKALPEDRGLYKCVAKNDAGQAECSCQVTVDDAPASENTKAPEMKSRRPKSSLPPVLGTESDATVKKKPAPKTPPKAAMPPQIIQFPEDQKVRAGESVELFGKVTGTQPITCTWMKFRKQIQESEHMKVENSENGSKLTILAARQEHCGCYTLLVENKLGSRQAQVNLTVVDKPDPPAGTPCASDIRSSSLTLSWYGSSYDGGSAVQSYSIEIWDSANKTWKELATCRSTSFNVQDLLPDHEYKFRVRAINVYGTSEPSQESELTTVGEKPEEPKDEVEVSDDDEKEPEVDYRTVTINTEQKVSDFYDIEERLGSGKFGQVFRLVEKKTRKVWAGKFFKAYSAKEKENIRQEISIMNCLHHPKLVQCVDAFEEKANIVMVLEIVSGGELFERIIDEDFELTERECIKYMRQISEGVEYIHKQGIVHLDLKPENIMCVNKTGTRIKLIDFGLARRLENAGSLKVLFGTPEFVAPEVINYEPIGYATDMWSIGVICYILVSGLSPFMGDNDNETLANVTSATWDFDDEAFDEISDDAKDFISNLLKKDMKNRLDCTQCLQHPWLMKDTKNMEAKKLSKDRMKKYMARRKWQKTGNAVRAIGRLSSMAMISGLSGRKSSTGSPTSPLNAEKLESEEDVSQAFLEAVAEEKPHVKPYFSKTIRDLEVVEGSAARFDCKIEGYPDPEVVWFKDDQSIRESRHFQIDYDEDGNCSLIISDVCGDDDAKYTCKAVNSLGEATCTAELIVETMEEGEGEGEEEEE

[1] = test system: EIF2AK4 KD2 (human), Q9P2K8 [S808G]
LCK (human) = LCK (human) (UniProt P06239)
CDK5 (human) = CDK5 (human) (UniProt Q00535)
ACVR2A (human) = ACVR2A (human) (UniProt P27037)
STK33 (human) = STK33 (human) (UniProt Q9BYT3)
ANKK1 (human) = ANKK1 (human) (UniProt Q8NFD2)
CLK2 (human) = CLK2 (human) (UniProt P49760)
ERBB2 (human) = ERBB2 (human) (UniProt P04626)
MAP2K4 (human) = MAP2K4 (human) (UniProt P45985)
AKT2 (human) = AKT2 (human) (UniProt P31751)
Chain of AKT2 (human) (P31751 whole entry, looked up): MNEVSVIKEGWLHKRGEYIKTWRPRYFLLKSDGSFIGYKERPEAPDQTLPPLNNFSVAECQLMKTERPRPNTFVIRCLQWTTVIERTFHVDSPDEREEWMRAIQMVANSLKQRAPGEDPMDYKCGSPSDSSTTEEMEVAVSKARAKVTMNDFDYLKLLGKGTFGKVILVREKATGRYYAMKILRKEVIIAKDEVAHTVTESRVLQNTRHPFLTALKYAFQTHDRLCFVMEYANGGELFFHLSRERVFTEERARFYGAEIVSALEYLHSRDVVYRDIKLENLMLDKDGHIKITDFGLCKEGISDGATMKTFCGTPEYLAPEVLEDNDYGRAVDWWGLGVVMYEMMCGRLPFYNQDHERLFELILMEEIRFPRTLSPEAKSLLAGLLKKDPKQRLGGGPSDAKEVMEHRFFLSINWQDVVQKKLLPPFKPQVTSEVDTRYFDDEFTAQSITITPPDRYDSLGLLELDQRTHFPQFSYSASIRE

MKNK2 (human) = MKNK2 (human) (UniProt Q9HBH9)
STK17A (human) = STK17A (human) (UniProt Q9UEE5)
CDK15 (human) = CDK15 (human) (UniProt Q96Q40)
MAP3K11 (human) = MAP3K11 (human) (UniProt Q16584)
NTRK2 (human) = NTRK2 (human) (UniProt Q16620)
PAK1 (human) = PAK1 (human) (UniProt Q13153)
PRKACB (human) = PRKACB (human) (UniProt P22694)
HCK (human) = HCK (human) (UniProt P08631)
Chain of HCK (human) (P08631 whole entry, looked up): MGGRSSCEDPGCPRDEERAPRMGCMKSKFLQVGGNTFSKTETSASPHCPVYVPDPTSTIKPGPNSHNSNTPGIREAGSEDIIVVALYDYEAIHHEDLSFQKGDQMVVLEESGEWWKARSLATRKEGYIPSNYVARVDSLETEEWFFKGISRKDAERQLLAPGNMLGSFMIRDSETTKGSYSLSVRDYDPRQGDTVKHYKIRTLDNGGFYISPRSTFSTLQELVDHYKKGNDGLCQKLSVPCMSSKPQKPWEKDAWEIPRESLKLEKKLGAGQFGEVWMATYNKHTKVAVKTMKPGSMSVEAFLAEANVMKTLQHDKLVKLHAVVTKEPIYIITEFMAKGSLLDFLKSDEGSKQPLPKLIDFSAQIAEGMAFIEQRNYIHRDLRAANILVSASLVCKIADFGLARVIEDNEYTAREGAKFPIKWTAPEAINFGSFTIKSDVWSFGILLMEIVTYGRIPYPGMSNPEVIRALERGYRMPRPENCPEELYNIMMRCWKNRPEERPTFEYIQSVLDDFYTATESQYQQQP

SRPK1 (human) = SRPK1 (human) (UniProt Q96SB4)
Chain of SRPK1 (human) (Q96SB4 whole entry, looked up): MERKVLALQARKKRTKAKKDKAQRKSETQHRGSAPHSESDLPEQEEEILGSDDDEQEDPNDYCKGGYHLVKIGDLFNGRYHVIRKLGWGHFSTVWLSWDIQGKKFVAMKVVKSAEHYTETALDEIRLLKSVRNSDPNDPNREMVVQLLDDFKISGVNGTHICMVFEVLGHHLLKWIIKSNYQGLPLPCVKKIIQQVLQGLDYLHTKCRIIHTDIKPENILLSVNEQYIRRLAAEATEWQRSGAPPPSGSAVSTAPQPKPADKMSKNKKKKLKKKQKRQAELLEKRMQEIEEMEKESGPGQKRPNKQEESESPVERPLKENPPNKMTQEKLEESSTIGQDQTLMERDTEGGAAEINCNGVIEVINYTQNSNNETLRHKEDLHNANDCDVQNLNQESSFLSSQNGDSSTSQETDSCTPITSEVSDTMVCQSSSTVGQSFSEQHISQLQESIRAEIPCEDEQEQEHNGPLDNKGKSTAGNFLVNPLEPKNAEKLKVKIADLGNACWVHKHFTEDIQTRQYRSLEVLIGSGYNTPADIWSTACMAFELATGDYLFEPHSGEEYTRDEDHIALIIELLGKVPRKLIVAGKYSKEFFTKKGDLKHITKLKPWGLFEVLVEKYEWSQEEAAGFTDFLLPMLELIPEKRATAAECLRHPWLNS

CDK17 (human) = CDK17 (human) (UniProt Q00537)
PRKACA (human) = PRKACA (human) (UniProt P17612)
DMPK (human) = DMPK (human) (UniProt Q09013)
ERBB4 (human) = ERBB4 (human) (UniProt Q15303)
PDGFRB (human) = PDGFRB (human) (UniProt P09619)
NEK1 (human) = NEK1 (human) (UniProt Q96PY6)
MAPK9 (human) = MAPK9 (human) (UniProt P45984)
CAMK2A (human) = CAMK2A (human) (UniProt Q9UQM7)
SRPK2 (human) = SRPK2 (human) (UniProt P78362)
Chain of SRPK2 (human) (P78362 whole entry, looked up): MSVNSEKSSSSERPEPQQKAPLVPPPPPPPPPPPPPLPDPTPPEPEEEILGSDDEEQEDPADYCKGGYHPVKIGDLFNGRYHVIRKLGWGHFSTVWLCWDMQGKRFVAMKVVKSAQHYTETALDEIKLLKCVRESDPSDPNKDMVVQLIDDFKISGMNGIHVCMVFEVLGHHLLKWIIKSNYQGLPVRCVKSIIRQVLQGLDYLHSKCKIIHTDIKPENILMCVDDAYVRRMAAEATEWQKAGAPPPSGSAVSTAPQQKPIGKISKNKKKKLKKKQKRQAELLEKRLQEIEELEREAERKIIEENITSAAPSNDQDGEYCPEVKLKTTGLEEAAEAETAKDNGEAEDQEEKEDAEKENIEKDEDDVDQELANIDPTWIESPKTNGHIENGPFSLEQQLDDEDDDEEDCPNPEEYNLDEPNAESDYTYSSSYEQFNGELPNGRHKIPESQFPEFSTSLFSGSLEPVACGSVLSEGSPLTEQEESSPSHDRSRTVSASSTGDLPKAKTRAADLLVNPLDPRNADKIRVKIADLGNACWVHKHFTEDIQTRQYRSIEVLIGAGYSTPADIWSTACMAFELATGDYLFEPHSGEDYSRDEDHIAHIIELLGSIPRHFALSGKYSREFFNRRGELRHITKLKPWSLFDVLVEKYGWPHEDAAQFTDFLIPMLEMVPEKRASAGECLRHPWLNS

MAP4K5 (human) = MAP4K5 (human) (UniProt Q9Y4K4)
NTRK1 (human) = NTRK1 (human) (UniProt P04629)

Chain of AURKB (human) (Q96GD4 whole entry, looked up): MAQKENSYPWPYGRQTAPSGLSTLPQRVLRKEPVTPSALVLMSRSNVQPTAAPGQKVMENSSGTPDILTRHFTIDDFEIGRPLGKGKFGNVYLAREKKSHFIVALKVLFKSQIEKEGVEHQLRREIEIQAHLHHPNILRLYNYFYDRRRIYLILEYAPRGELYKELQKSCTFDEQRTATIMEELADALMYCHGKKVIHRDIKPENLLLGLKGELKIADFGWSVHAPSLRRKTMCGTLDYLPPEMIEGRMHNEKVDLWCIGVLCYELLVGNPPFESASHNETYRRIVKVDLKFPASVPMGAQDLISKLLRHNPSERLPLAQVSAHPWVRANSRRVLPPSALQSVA

SMILES | kinase still bound, per cent of control (MINK1 (human)) [%] | kinase still bound, per cent of control (MAPK15 (human)) [%] | kinase still bound, per cent of control (EPHB1 (human)) [%] | kinase still bound, per cent of control (LATS2 (human)) [%] | kinase still bound, per cent of control (MUSK (human)) [%] | kinase still bound, per cent of control (MAP3K9 (human)) [%] | kinase still bound, per cent of control (RPS6KA6 KD1 (human)) [%] | kinase still bound, per cent of control (CSNK2A1 (human)) [%] | kinase still bound, per cent of control (MYLK (human)) [%] | kinase still bound, per cent of control [1] [%] | kinase still bound, per cent of control (LCK (human)) [%] | kinase still bound, per cent of control (CDK5 (human)) [%] | kinase still bound, per cent of control (ACVR2A (human)) [%] | kinase still bound, per cent of control (STK33 (human)) [%] | kinase still bound, per cent of control (ANKK1 (human)) [%] | kinase still bound, per cent of control (CLK2 (human)) [%] | kinase still bound, per cent of control (ERBB2 (human)) [%] | kinase still bound, per cent of control (MAP2K4 (human)) [%] | kinase still bound, per cent of control (AKT2 (human)) [%] | kinase still bound, per cent of control (STK17A (human)) [%] | further results
CC[C@@H]1C(=O)N(C)c2cnc(Nc3ccc(C(=O)NC4CCN(C)CC4)cc3OC)nc2N1C1CCCC1 | 100 | 100 | 100 | 100 | 100 | 100 | 100 | 100 | 3.6 | 100 | 100 | 100 | 100 | 14 | 100 | 5.4 | 100 | 100 | 100 | 100 | kinase still bound, per cent of control (AURKB (human)): 100%; kinase still bound, per cent of control (MKNK2 (human)): 100%; kinase still bound, per cent of control (CDK15 (human)): 100%; kinase still bound, per cent of control (MAP3K11 (human)): 100%; kinase still bound, per cent of control (NTRK2 (human)): 100%; kinase still bound, per cent of control (PAK1 (human)): 100%; kinase still bound, per cent of control (PRKACB (human)): 100%; kinase still bound, per cent of control (HCK (human)): 100%; kinase still bound, per cent of control (SRPK1 (human)): 100%; kinase still bound, per cent of control (CDK17 (human)): 100%; kinase still bound, per cent of control (PRKACA (human)): 100%; kinase still bound, per cent of control (DMPK (human)): 100%; kinase still bound, per cent of control (ERBB4 (human)): 100%; kinase still bound, per cent of control (PDGFRB (human)): 100%; kinase still bound, per cent of control (NEK1 (human)): 100%; kinase still bound, per cent of control (MAPK9 (human)): 100%; kinase still bound, per cent of control (CAMK2A (human)): 26%; kinase still bound, per cent of control (SRPK2 (human)): 100%
Nc1ccc(-c2ccc3ncc4ccc(=O)n(-c5cccc(C(F)(F)F)c5)c4c3c2)cn1 | 56 | 18 | 100 | 100 | 100 | 100 | 80 | 79 | 95 | 100 | 100 | 92 | 95 | 100 | 100 | 15 | 97 | 44 | 100 | 100 | kinase still bound, per cent of control (MAP4K5 (human)): 100%; kinase still bound, per cent of control (AURKB (human)): 89%; kinase still bound, per cent of control (CDK15 (human)): 94%; kinase still bound, per cent of control (MAP3K11 (human)): 96%; kinase still bound, per cent of control (NTRK2 (human)): 72%; kinase still bound, per cent of control (PAK1 (human)): 95%; kinase still bound, per cent of control (PRKACB (human)): 85%; kinase still bound, per cent of control (HCK (human)): 100%; kinase still bound, per cent of control (SRPK1 (human)): 100%; kinase still bound, per cent of control (CDK17 (human)): 98%; kinase still bound, per cent of control (PRKACA (human)): 100%; kinase still bound, per cent of control (DMPK (human)): 95%; kinase still bound, per cent of control (ERBB4 (human)): 100%; kinase still bound, per cent of control (PDGFRB (human)): 34%; kinase still bound, per cent of control (NEK1 (human)): 87%; kinase still bound, per cent of control (NTRK1 (human)): 57%; kinase still bound, per cent of control (MAPK9 (human)): 89%; kinase still bound, per cent of control (CAMK2A (human)): 83%; kinase still bound, per cent of control (SRPK2 (human)): 100%
CCCS(=O)(=O)Nc1ccc(F)c(C(=O)c2c[nH]c3ncc(-c4ccc(Cl)cc4)cc23)c1F | 38 | 89 | 100 | 75 | 99 | 52 | 82 | 100 | 91 | 0.55 | 1.6 | 96 | 100 | 94 | 91 | 46 | 100 | 5 | 76 | 62 | kinase still bound, per cent of control (MAP4K5 (human)): 6.4%; kinase still bound, per cent of control (CDK15 (human)): 96%; kinase still bound, per cent of control (MAP3K11 (human)): 81%; kinase still bound, per cent of control (NTRK2 (human)): 78%; kinase still bound, per cent of control (PAK1 (human)): 95%; kinase still bound, per cent of control (PRKACB (human)): 100%; kinase still bound, per cent of control (HCK (human)): 13%; kinase still bound, per cent of control (SRPK1 (human)): 92%; kinase still bound, per cent of control (CDK17 (human)): 86%; kinase still bound, per cent of control (PRKACA (human)): 100%; kinase still bound, per cent of control (DMPK (human)): 67%; kinase still bound, per cent of control (PDGFRB (human)): 0.15%; kinase still bound, per cent of control (NEK1 (human)): 100%; kinase still bound, per cent of control (NTRK1 (human)): 90%; kinase still bound, per cent of control (MAPK9 (human)): 50%; kinase still bound, per cent of control (CAMK2A (human)): 100%; kinase still bound, per cent of control (SRPK2 (human)): 100%
Cn1c(=O)n(-c2ccc(C(C)(C)C#N)cc2)c2c3cc(-c4cnc5ccccc5c4)ccc3ncc21 | 100 | 100 | 100 | 100 | 100 | 100 | 100 | 100 | 100 | 100 | 100 | 100 | 100 | 100 | 100 | 100 | 100 | 100 | 100 | 100 | kinase still bound, per cent of control (MAP4K5 (human)): 100%; kinase still bound, per cent of control (AURKB (human)): 100%; kinase still bound, per cent of control (MKNK2 (human)): 100%; kinase still bound, per cent of control (CDK15 (human)): 100%; kinase still bound, per cent of control (MAP3K11 (human)): 100%; kinase still bound, per cent of control (NTRK2 (human)): 100%; kinase still bound, per cent of control (PAK1 (human)): 100%; kinase still bound, per cent of control (PRKACB (human)): 100%; kinase still bound, per cent of control (HCK (human)): 100%; kinase still bound, per cent of control (SRPK1 (human)): 100%; kinase still bound, per cent of control (CDK17 (human)): 100%; kinase still bound, per cent of control (PRKACA (human)): 100%; kinase still bound, per cent of control (DMPK (human)): 100%; kinase still bound, per cent of control (ERBB4 (human)): 100%; kinase still bound, per cent of control (NEK1 (human)): 100%; kinase still bound, per cent of control (MAPK9 (human)): 100%; kinase still bound, per cent of control (CAMK2A (human)): 100%; kinase still bound, per cent of control (SRPK2 (human)): 100%
